Among the data in patent publication US10662164B2, “Non-beta lactam antibiotics” (University of Notre Dame du Lac, priority 2014, dated 2020) are MIC values, retold here.

The subject of assay [1] is S. epidermis ATCC 35547. Particulars: vancomycin, data from reference 10; Table 5; cited from earlier work.
For another assay, the system named is E. faecium NCTC 7171. Description: MIC determination. The following applies: Enterococcus faecium, NCTC7171. It counts as cell-based, Enterococcus faecium.
Another assay has as its system E. faecium C68. The following applies: vancomycin, data from reference 12; Table 5; cited from earlier work.
A further assay concerns S. aureus VRS1. The following applies: vancomycin, data from reference 10; Table 5; cited from earlier work.
Assay [2] relates to E. faecium 119-39A (Van S). The following applies: vancomycin, data from reference 10; Table 5; cited from earlier work.
Assay [3] concerns E. faecium 106 (Van R). Particulars: vancomycin, data from reference 10; Table 5; cited from earlier work.
Assay [4] deals with E. faecium 106 (Van R). Description: MIC determination. It counts as cell-based. The following applies: Enterococcus faecium. The source says:
(§1) The ESKAPE organisms (E. faecium NCTC (ATCC 19734), S. aureus ATCC 29213, K. pneumonia ATCC 700603, A. baumannii ATCC 17961, P. aeruginosa ATCC 17853, E. aerogenes ATCC 35029) and E. coli ATCC 25922) in the initial screen, S. aureus ATCC 27660, S. epidermis ATCC 35547, S. haemolyticus ATCC 29970, S. oralis ATCC 9811, S. pyogenes ATCC 49399, B. cereus ATCC 13061, B. licheniformis ATCC 12759, and E. faecalis ATCC 29212 were purchased from the American Type Culture Collection (Manassas, Va., USA). S. aureus strains NRS100, NRS119, NRS120, VRS1, and VRS2 were obtained from the Network on Antimicrobial Resistance in Staphylococcus aureus (Chantilly, Va., USA). E. faecalis strains 201 and 99, and E. faecium strains 119-39A and 106 were collected from Wayne State University School of Medicine.
(§2) The procedure for MIC determination was the same as previously reported (Tran et al., Am. J. Clin. Dermatol. 2015; doi 10.1007/S40257-015-0125-9).

Another assay deals with S. oralis ATCC 9811. Description: MIC determination. In kind it is cell-based. Particulars: Streptococcus oralis, ATCC9811.
Excerpt: as §1, §2

For assay [5], the system named is S. epidermis ATCC 35547. The experiment in a line: MIC determination. In kind it is cell-based.
Excerpt: as §1, §2

Assay [6] relates to E. faecium 119-39A (Van S). The experiment in a line: MIC determination. In kind it is cell-based. The following applies: Enterococcus faecium.
Excerpt: as §1, §2

In a further assay the test system is S. pyogenes ATCC 49399. Description: MIC determination. It counts as cell-based. Particulars: Streptococcus pyogenes, ATCC49399.
Excerpt: as §1, §2

Values after ≈ are worked out from the molar mass of the structure shown. Like-named read-outs stand apart in the source and are kept apart here. Marks after values point to notes of the source that are not given here.

As for `CN[C@H](CC(C)C)C(=O)N[C@H]1C(=O)N[C@@H](CC(N)=O)C(=O)N[C@H]2C(=O)N[C@H]3C(=O)N[C@H](C(=O)N[C@H](C(=O)O)c4cc(O)cc(O)c4-c4cc3ccc4O)[C@H](O)c3ccc(c(Cl)c3)Oc3cc2cc(c3O[C@@H]2O[C@H](CO)[C@@H](O)[C@H](O)[C@H]2O[C@H]2C[C@](C)(N)[C@H](O)[C@H](C)O2)Oc2ccc(cc2Cl)[C@H]1O` [vancomycin, reference compound], the MIC (in general, the lowest concentration found to suppress growth) in the assay with S. epidermis ATCC 35547 [1] was 16 µg/mL (≈ 11 µM); against E. faecium NCTC 7171 it was 0.5 µg/mL (≈ 0.345 µM); in the assay on E. faecium C68 it was 64^k μg/mL; with S. aureus VRS1 it was 512 µg/mL (≈ 353 µM); in assay [2], 0.5 µg/mL (≈ 0.345 µM); with E. faecium 106 (Van R) [3], 256 µg/mL (≈ 177 µM). Further, the MIC was found to be 256 µg/mL (≈ 177 µM) in the assay with E. faecium 106 (Van R) [4]; 0.5 µg/mL (≈ 0.345 µM) in the assay on S. oralis ATCC 9811; 16 µg/mL (≈ 11 µM) in the assay with S. epidermis ATCC 35547 [5]; 0.5 µg/mL (≈ 0.345 µM) in assay [6]; 0.6 µg/mL (≈ 0.414 µM) in the assay with S. pyogenes ATCC 49399.
